Laboratory results published in the NIST ThermoML archive (doi:10.1016/j.jct.2019.02.031).

Assay: xn = mol fraction of the nth substance listed
Settings: 101 kPa, Liquid; for viscosity: Falling or rolling sphere viscometry; for mass density: Vibrating tube method

Cn1cc[n+](CCC[N+](C)(C)C)c1.N#C[N-]C#N.N#C[N-]C#N + CC(C)O
Settings | mass density [kg/m3] | viscosity [mPa·s]
283.15 K, x1 = 0.1001 | 905.3 | 12.27
283.15 K, x1 = 0.2 | 978.56 | 31.98
283.15 K, x1 = 0.2999 | 1028.83 | 71.59
283.15 K, x1 = 0.4 | 1065.91 | 152.1
283.15 K, x1 = 0.5001 | 1094.18 | 290.4
283.15 K, x1 = 0.5998 | 1114.84 | 452
283.15 K, x1 = 0.7002 | 1130.38 | 742.9
283.15 K, x1 = 0.8001 | 1142.95 | 1216
283.15 K, x1 = 0.8985 | 1153.75 | 2301
283.15 K, x1 = 1 | 1162.82 | 4998
288.15 K, x1 = 0.1001 | 901.8 | 10.23
288.15 K, x1 = 0.2 | 975.32 | 25.55
288.15 K, x1 = 0.2999 | 1025.72 | 54.85
288.15 K, x1 = 0.4 | 1062.7 | 110.5
288.15 K, x1 = 0.5001 | 1091.1 | 204.6
288.15 K, x1 = 0.5998 | 1111.98 | 303.9
288.15 K, x1 = 0.7002 | 1127.66 | 493.5
288.15 K, x1 = 0.8001 | 1140.22 | 749.8
288.15 K, x1 = 0.8985 | 1150.85 | 1346
288.15 K, x1 = 1 | 1159.76 | 2736
293.15 K, x1 = 0.1001 | 898.28 | 8.914
293.15 K, x1 = 0.2 | 972.09 | 21.4
293.15 K, x1 = 0.2999 | 1022.6 | 44.54
293.15 K, x1 = 0.4 | 1059.76 | 85.03
293.15 K, x1 = 0.5001 | 1088.04 | 153
293.15 K, x1 = 0.5998 | 1108.93 | 219.1
293.15 K, x1 = 0.7002 | 1124.71 | 341.4
293.15 K, x1 = 0.8001 | 1137.27 | 498.6
293.15 K, x1 = 0.8985 | 1147.89 | 843.4
293.15 K, x1 = 1 | 1156.74 | 1608
298.15 K, x1 = 0.1001 | 894.74 | 7.619
298.15 K, x1 = 0.2 | 968.65 | 18.02
298.15 K, x1 = 0.2999 | 1019.48 | 35.75
298.15 K, x1 = 0.4 | 1056.42 | 66.38
298.15 K, x1 = 0.5001 | 1084.68 | 116.5
298.15 K, x1 = 0.5998 | 1105.58 | 163
298.15 K, x1 = 0.7002 | 1121.85 | 245.1
298.15 K, x1 = 0.8001 | 1134.38 | 342.8
298.15 K, x1 = 0.8985 | 1144.95 | 558.1
298.15 K, x1 = 1 | 1153.73 | 1007
303.15 K, x1 = 0.1001 | 891.18 | 6.585
303.15 K, x1 = 0.2 | 965.32 | 15.28
303.15 K, x1 = 0.2999 | 1016.38 | 29.22
303.15 K, x1 = 0.4 | 1053.15 | 53.45
303.15 K, x1 = 0.5001 | 1081.45 | 90.62
303.15 K, x1 = 0.5998 | 1102.88 | 124.3
303.15 K, x1 = 0.7002 | 1118.91 | 181.3
303.15 K, x1 = 0.8001 | 1131.5 | 245.7
303.15 K, x1 = 0.8985 | 1141.97 | 387.2
303.15 K, x1 = 1 | 1150.76 | 662.9
308.15 K, x1 = 0.1001 | 887.61 | 5.755
308.15 K, x1 = 0.2 | 962.09 | 13.11
308.15 K, x1 = 0.2999 | 1013.25 | 24.31
308.15 K, x1 = 0.4 | 1050.12 | 43.61
308.15 K, x1 = 0.5001 | 1078.35 | 71.82
308.15 K, x1 = 0.5998 | 1099.87 | 97.07
308.15 K, x1 = 0.7002 | 1116.01 | 137.7
308.15 K, x1 = 0.8001 | 1128.64 | 182
308.15 K, x1 = 0.8985 | 1139.04 | 278.9
308.15 K, x1 = 1 | 1147.8 | 455.4
313.15 K, x1 = 0.1001 | 884.01 | 5.069
313.15 K, x1 = 0.2 | 959.16 | 11.51
313.15 K, x1 = 0.2999 | 1009.82 | 20.53
313.15 K, x1 = 0.4 | 1046.89 | 36.31
313.15 K, x1 = 0.5001 | 1075.26 | 58.15
313.15 K, x1 = 0.5998 | 1096.85 | 77.62
313.15 K, x1 = 0.7002 | 1113.12 | 107.2
313.15 K, x1 = 0.8001 | 1125.89 | 138.5
313.15 K, x1 = 0.8985 | 1136.19 | 207.8
313.15 K, x1 = 1 | 1144.89 | 324.6
318.15 K, x1 = 0.1001 | 880.4 | 4.515
318.15 K, x1 = 0.2 | 955.64 | 10.08
318.15 K, x1 = 0.2999 | 1006.35 | 17.42
318.15 K, x1 = 0.4 | 1043.68 | 30.62
318.15 K, x1 = 0.5001 | 1072.32 | 48.57
318.15 K, x1 = 0.5998 | 1094.09 | 63.07
318.15 K, x1 = 0.7002 | 1110.26 | 85.59
318.15 K, x1 = 0.8001 | 1123.09 | 109
318.15 K, x1 = 0.8985 | 1133.33 | 160.3
318.15 K, x1 = 1 | 1142 | 239.7
323.15 K, x1 = 0.1001 | 876.76 | 4.052
323.15 K, x1 = 0.2 | 952.12 | 8.828
323.15 K, x1 = 0.2999 | 1002.86 | 15.18
323.15 K, x1 = 0.4 | 1040.46 | 26.11
323.15 K, x1 = 0.5001 | 1069.5 | 40.73
323.15 K, x1 = 0.5998 | 1091.18 | 52.16
323.15 K, x1 = 0.7002 | 1107.31 | 70.03
323.15 K, x1 = 0.8001 | 1120.31 | 86.93
323.15 K, x1 = 0.8985 | 1130.45 | 125.4
323.15 K, x1 = 1 | 1139.11 | 181.2
328.15 K, x1 = 0.1001 | 873.09 | 3.672
328.15 K, x1 = 0.2 | 948.69 | 7.836
328.15 K, x1 = 0.2999 | 1000.05 | 13.38
328.15 K, x1 = 0.4 | 1037.56 | 22.57
328.15 K, x1 = 0.5001 | 1066.62 | 34.87
328.15 K, x1 = 0.5998 | 1088.47 | 45.82
328.15 K, x1 = 0.7002 | 1104.35 | 58.38
328.15 K, x1 = 0.8001 | 1117.52 | 71.22
328.15 K, x1 = 0.8985 | 1127.59 | 101.4
328.15 K, x1 = 1 | 1136.24 | 141.1
333.15 K, x1 = 0.1001 | 869.4 | 3.36
333.15 K, x1 = 0.2 | 945.77 | 6.989
333.15 K, x1 = 0.2999 | 996.95 | 11.94
333.15 K, x1 = 0.4 | 1034.62 | 19.89
333.15 K, x1 = 0.5001 | 1063.89 | 29.99
333.15 K, x1 = 0.5998 | 1085.59 | 39.36
333.15 K, x1 = 0.7002 | 1101.65 | 49.32
333.15 K, x1 = 0.8001 | 1114.82 | 59.34
333.15 K, x1 = 0.8985 | 1124.75 | 83.14
333.15 K, x1 = 1 | 1133.4 | 111.9
